Assay results taken from patent publication US4626547A, “Antibiotic AM-2604-A, an anti-trichomonas agent, anti-caccidium agent, anti-viral agent and anti-fungal agent containing the same and methods of use of the same” (The Kitasato Institute, priority 1982, dated 1986).
In brackets after ≈: the same amount, converted by molar mass. Entries after “also recorded” stand apart in the source; their conditions may differ.

Columns and labels:
[1] = test system: Monilinia fructicola; experiment: MIC by agar dilution method; format: cell-based
Source text: (§1) The minimum inhibitory concentrations (MIC) of the antibiotic substance as determined by the agar dilution method are shown in Table 1 below.

[2] = test system: Proteus vulgarius IFO 3167; experiment: MIC by agar dilution method; format: cell-based
Source text: as §1

[3] = test system: Mucor racemosus; experiment: MIC by agar dilution method; format: cell-based
Source text: as §1

[4] = test system: Micrococcus luteus ATCC 9341; experiment: MIC by agar dilution method; format: cell-based; conditions: ATCC9341
Source text: as §1

[5] = test system: Fusarium oxysporum; experiment: MIC by agar dilution method; format: cell-based
Source text: as §1

[6] = test system: Alternaria kikuchiana; experiment: MIC by agar dilution method; format: cell-based
Source text: as §1

[7] = test system: Saccharomyces sake; experiment: MIC by agar dilution method; format: cell-based
Source text: as §1

[8] = test system: Botrytis cinerea; experiment: MIC by agar dilution method; format: cell-based
Source text: as §1

[9] = test system: Candida albicans; experiment: MIC by agar dilution method; format: cell-based
Source text: as §1

[10] = test system: Bacillus subtilis ATCC 6633; experiment: MIC by agar dilution method; format: cell-based; conditions: ATCC6633
Source text: as §1

[11] = test system: Escherichia coli NIHJ; experiment: MIC by agar dilution method; format: cell-based
Source text: as §1

[12] = test system: Microsporum gypseum; experiment: MIC by agar dilution method; format: cell-based; conditions: Nannizzia gypsea
Source text: as §1

[13] = test system: Aspergillus niger; experiment: MIC by agar dilution method; format: cell-based
Source text: as §1

[14] = test system: Trichophyton interdigitale; experiment: MIC by agar dilution method; format: cell-based
Source text: as §1

[15] = test system: Staphylococcus aureus ATCC 65389; experiment: MIC by agar dilution method; format: cell-based; conditions: ATCC65389
Source text: as §1

[16] = test system: Mycobacterium smegmatis ATCC 607; experiment: MIC by agar dilution method; format: cell-based; conditions: Mycolicibacterium smegmatis, ATCC607
Source text: as §1

[17] = test system: Gram-negative bacteria; experiment: Antibacterial activity against Gram-negative bacteria (summary); format: cell-based
[18] = Solubility in solvents; format: physicochemical
[19] = test system: Herpes virus Type No. 2 (HSV-2); experiment: Antiviral plaque-formation reduction in CE cells; format: cell-based; conditions: Human alphaherpesvirus 2, 72 h, 20 h pretreatment, 3 days, read-out: 50% Effective Dose (ED50)
[20] = Toxicity testing, intraperitoneal injection; conditions: mouse, in vivo, ip, mice
Description: The toxicity testing of the antibiotic AM-2604-A substance was performed using mice by the intraperitoneal injection method.

[21] = test system: Trichomonas foetus; experiment: Infection-therapy test of Trichomonas foetus-infected mice; format: in vivo, mice infected with Trichomonas foetus; conditions: for Number of Mice That Died / Cured Mice / Living Mice with Formation of Ascites / Mice with Trichomonas foetus: oral; for Cured Mice / Living Mice with Formation of Ascites / Mice with Trichomonas foetus: 7 days
Description: An infection-therapy test of Trichomonas foetus-infected mice was performed as follows:
Mice were divided into groups of ten. Trichomonas foetus was cultivated at 37° C. on a Trichocel broth with 5% inactivated calf serum added (produced by BBL Co.) for 48 hours. One milliliter of the Trichomonas foetus-containing solution (4×10^6 cells/ml) was injected intraperitoneally into mice having a weight of about 20 g. […]
The infection-therapy effect was judged as follows:
Seven days after the injection of Trichomonas foetus, the formation of ascites was examined. In the case of mice in which ascites was formed, the ascites were taken out and the presence of Trichomonas foetus was examined using a microscope.

[22] = test system: Sindbis virus (Sb); experiment: Antiviral plaque-formation reduction in CE cells; format: cell-based; conditions: 48 h, 20 h pretreatment, 2 days, read-out: 50% Effective Dose (ED50)
[23] = test system: DIE strain of vaccinia virus (Vac-DIE); experiment: microbe, parasite or virus in culture; format: cell-based; conditions: Orthopoxvirus vaccinia, 96 h; read-out: 50% Effective Dose (ED50)
[24] = test system: IHD strain of vaccinia virus (Vac-IHD); experiment: microbe, parasite or virus in culture; format: cell-based; conditions: Orthopoxvirus vaccinia, 96 h; read-out: 50% Effective Dose (ED50)
[25] = test system: Eimeria tenella; experiment: Effectiveness on coccidium-infected chicken; format: in vivo, white leghorn male chicks infected with Eimeria tenella; conditions: for Disorder of Cecum, grade - (Normal): chicks per group with grade -; for Disorder of Cecum, grade ± (Minor): chicks per group with grade ±; for Ratio of Increment of Weight: non-infected control = 1.00
Description: The potency of the antibiotic substance on coccidium-infected chickens was determined as follows:
Two-week-old white leghorn male chicks were divided into four groups of ten each. The feed used in this assay was a commercially available chick-breeding standard feed (major components: 19% crude protein, 2.5% crude fat, 5.0% crude fiber, 8.0% crude ash, 0.7% calcium, and 0.55% phosphorus).
One day after the start of feeding, 2×10^4 mature oocysts of Eimeria tenella per chick were orally administered to the chicks of the groups (Groups 1, 2 and 3) except for a non-infected control group (Group 4). Thereafter, the chicks of Groups 1 and 2 were bred by feeding the standard feed containing 0.005% and 0.0l% of the antibiotic substance, respectively, and Groups 3 and 4 were bred by feeding only the standard feed.
During the breeding period, the weight of each chick was measured, and the blood in the feces was observed. Furthermore, the number of oocysts in the feces 7 days after the infection of the oocysts were counted, and the disorder of cecum was examined by necropsy. In this way, the anti-coccidium action of the antibiotic substance was determined.
The items in Table 3 are as follows: [formula]
The amount of blood from the intestine of the chick is judged from the number of blood stains.
+ Minor, but slight disorder is observed.
++ Moderate hypertrophy is observed.
+++ Serious (disorder is very significant)
Number of oocysts per gram of the feces 7 days after the infection

[26] = test system: Newcastle disease virus (NDV); experiment: microbe, parasite or virus in culture; format: cell-based; conditions: avian paramyxovirus 1, 96 h; read-out: 50% Effective Dose (ED50)
[27] = test system: Western equine encephalitis virus (WEE); experiment: microbe, parasite or virus in culture; format: cell-based; conditions: 48 h, read-out: 50% Effective Dose (ED50)
[28] = test system: Vesicular stomatitis virus (VSV); experiment: microbe, parasite or virus in culture; format: cell-based; conditions: 48 h, read-out: 50% Effective Dose (ED50)
[29] = test system: DNA or RNA viruses; experiment: Antiviral activity (summary); format: cell-based, virus
[30] = test system: Xanthomonas oryzae; experiment: microbe, parasite or virus in culture; format: cell-based
[31] = test system: Gram-positive bacteria; experiment: Antibacterial activity against Gram-positive bacteria (summary); format: cell-based
[32] = test system: Herpes virus Type No. 1 (HSV-1); experiment: Antiviral plaque-formation reduction in CE cells; format: cell-based; conditions: Human alphaherpesvirus 1, 72 h, 20 h pretreatment, 3 days, read-out: 50% Effective Dose (ED50)
[33] = test system: Piricularia oryzae; experiment: microbe, parasite or virus in culture; format: cell-based
[34] = test system: fungi; experiment: Antifungal activity (summary); format: cell-based
[35] = test system: fungi; conditions: known antibiotic substances, literature; cited from earlier work
[36] = drug amount administered 4 mg/kg
[37] = drug amount administered 8 mg/kg

C/C=C/C1OC(O)(C(C)C(O)C(C)C2OC(=O)C(OC)=CC(C)=CC(C)C(O)C(CC)C(O)C(C)CC(C)=CC=CC2OC)CC(OC(=O)/C=C/C(=O)NC2=C(O)CCC2=O)C1C (stereo not shown) [AM-2604-A] showed an MIC [1] of 12.5 µg/mL (≈ 14.1 µM), an MIC [2] of over 100 µg/mL and an MIC [3] of 50 µg/mL (≈ 56.4 µM). For the same molecule, the MIC [4] was over 100 µg/mL, the MIC [5] was over 100 µg/mL and the MIC [6] was over 50 µg/mL. For the same molecule, the MIC [7] was 100 µg/mL (≈ 113 µM), the MIC [8] was over 50 µg/mL and the MIC [9] was over 100 µg/mL. For the same molecule, the MIC [10] was over 100 µg/mL, the MIC [11] was over 100 µg/mL and the MIC [12] was 50 µg/mL (≈ 56.4 µM). It also gave an MIC [13] of over 100 µg/mL, an MIC [14] of 50 µg/mL (≈ 56.4 µM) and an MIC [15] of over 100 µg/mL. For the same molecule, the MIC [16] was over 100 µg/mL, the “activity against Gram-negative bacteria (in words)” value [17] was “little antibacterial activity” and the “Solubility in organic solvents such as chloroform, acetone, and ethyl acetate” value ([18]; chloroform, acetone, ethyl acetate) was “Soluble”. The “Solubility in lower alcohols” value ([18]; lower alcohols) was “sparingly soluble”, the “Solubility in n-hexane and water” value ([18]; n-hexane and water) was “insoluble” and the EC50 [19] was 0.0003 µg/mL (≈ 0.000339 µM). For the same molecule, the LD50 [20] was 3 mg/kg, the “Number of Mice That Died” value [21, 36] was 2/10 and the “Cured Mice” value [21, 36] was 5/10. For the same molecule, the “Living Mice with Formation of Ascites” value [21, 36] was 2/10, the “Mice with Trichomonas foetus” value [21, 36] was 5/10 and the “Number of Mice That Died” value [21, 37] was 1/10. The “Cured Mice” value [21, 37] was 8/10, the “Living Mice with Formation of Ascites” value [21, 37] was 1/10 and the “Mice with Trichomonas foetus” value [21, 37] was 2/10. For the same molecule, the “anti-trichomonas action (in words)” value ([21]; summary of Table 4) was “excellent anti-trichomonas action; also recorded: active”, the EC50 [22] was 0.0005 µg/mL (≈ 0.000564 µM) and the EC50 [23] was 0.0003 µg/mL (≈ 0.000339 µM). The EC50 [24] was 0.0003 µg/mL (≈ 0.000339 µM), the “Increment of Weight” value ([25]; Group 1, 0.005% in feed) was 1.83 and the “Disorder of Cecum, grade + (Minor, but slight disorder is observed)” value ([25]; Group 1, 0.005% in feed, chicks per group with grade +) was 1/10. For the same molecule, the “Disorder of Cecum, grade - (Normal)” value ([25]; Group 1, 0.005% in feed) was 8/10, the “Disorder of Cecum, grade ± (Minor)” value ([25]; Group 1, 0.005% in feed) was 1/10 and the “Ratio of Increment of Weight” value ([25]; Group 1, 0.005% in feed) was 0.99. For the same molecule, the “Increment of Weight” value ([25]; Group 2, 0.01% in feed) was 1.86, the “Number of Oocysts (on the average)” value ([25]; Group 2, 0.01% in feed, 7 days after the infection) was 0 per gram of the feces and the “Disorder of Cecum, grade - (Normal)” value ([25]; Group 2, 0.01% in feed) was 9/10. For the same molecule, the “Disorder of Cecum, grade ± (Minor)” value ([25]; Group 2, 0.01% in feed) was 1/10, the “Ratio of Increment of Weight” value ([25]; Group 2, 0.01% in feed) was 1.01 and the “anticoccidium action (in words)” value ([25]; summary of Table 3) was “excellent anticoccidium action; also recorded: active”. The EC50 [26] was 0.0003 µg/mL (≈ 0.000339 µM), the EC50 [27] was 0.0003 µg/mL (≈ 0.000339 µM) and the EC50 [28] was 0.0003 µg/mL (≈ 0.000339 µM). The “activity against viruses (in words)” value [29] was “high inhibitory activity; also recorded: active”, the MIC [30] was over 50 µg/mL and the “activity against Gram-positive bacteria (in words)” value [31] was “little antibacterial activity; also recorded: almost inactive”. For the same molecule, the EC50 [32] was 0.0003 µg/mL (≈ 0.000339 µM), the MIC [33] was 12.5 µg/mL (≈ 14.1 µM) and the “activity against fungi (in words)” value [34] was “active”.

In the case of COC1=CC(C)=CC(C)C(O)C(C)CC(C)=CC=CC(OC)C(C(C)C(O)C(C)C2(O)CC(OC(=O)/C=C/C(=O)NC3=C(O)CCC3=O)C(C)C(C(C)C)O2)OC1=O (stereo not shown) [Setamycin], the “activity against fungi of known antibiotics (in words)” value [35] is given as “active”.
